Several values for one entry are separate records, joined by “and”; a condition that tells them apart may be missing. Equal values may be shown once. Entries after “also recorded” stand apart in the source; their conditions may differ.
Legend:
[1] = target: T1, ShKAI2iB (Striga hermonthica, UniProt A0A0M3PN85, C270S); experiment: Intrinsic fluorescence binding assay
Procedure: The coding sequence cDNA of ShKAI2iB was amplified by PCR using total complementary DNA from the total RNA of 1-day conditioned Striga seeds. ShKAI2iB (1–270, C270S) was designed for crystallization and other assays. For expression in Escherichia coli, the PCR product was cloned into an expression vector pGEX-6P-3 (GE Healthcare) and subsequently transformed into E. coli strain Rosetta (DE3) (Novagen). IPTG-induced overexpression was performed for 20 h at 25 °C. […] Purified ShKAI2iB was dialyzed against buffer B (20 mM HEPES-NaOH, pH 8.0, 50 mM NaCl) for the ITC experiments and the intrinsic fluorescence assay.
KD values were also determined by using intrinsic fluorescence assays. Fluorescence measurements were conducted as previously described[16] with minor modifications. […] Flat-bottomed, black 96 well plates were used to read fluorescence intensity using a Tecan Infinite M1000 monochromator. Measurements were taken at room temperature under a 285 nm excitation wavelength, a 333 nm emission wavelength, 50 flashes, and a 400 Hz flash frequency with a gain of 70 and a 2 μs integration time. ΔF (rfu, relative fluorescence units) was calculated by subtracting the fluorescence of the DMSO control. […]

[2] = target: T1, ShKAI2iB; experiment: Enzymatic degradation (hydrolysis) assay of rac-GR24 with HPLC; format: biochemical; conditions: 10 μM rac-GR24, 6 μg ml^−1 protein, 3 h, 37 °C
Procedure: The enzymatic degradation assay of rac-GR24 was performed in a total volume of 1 ml of PBS buffer containing 10 μM rac-GR24. Purified OsD14[23] and ShKAI2iB were added at a final concentration of 6 μg ml^−1 and incubated for 3 h at 37 °C. Then 100 mg of NaCl and 100 μl of 0.1 M HCl were added to each reaction solution, and the reaction solutions were extracted with 400 μl of ethyl acetate three times. The ethyl acetate layers were combined and dried in vacuo and dissolved in 50 μl of methanol. For each layer, 10 μl was applied to the HPLC analyses. The reverse-phase chromatographic separation was performed on a Jasco HPLC system that was equipped with an HPLC pump of model PU 2080 (Jasco) and a photodiode array detector MD1510 (Jasco). The system was controlled by the ChromNAV (Ver. 1.18.07) software program (Jasco). The analytical column was a CAPCELL CORE C18 (Φ 4.6 × 100 mm, Shiseido). The analytes were eluted under gradient conditions using methanol ramped linearly to 90% methanol at 9 min and held for 4.5 min before resetting to the original conditions. The contents of rac-GR24 was calculated by the peak area at the retention time 6.2 min with the regression equation obtained from the calibration curve produced using a dilution series of rac-GR24 solution. […] Statistical differences between the groups were calculated with ANOVA analysis followed by Tukey–Kramer test.

[3] = system: KAI2; set-up: method as in PMID 25126711; conditions: cited from earlier work
[4] = target: T1, ShKAI2iB; experiment: ITC binding to ShKAI2iB (wild type)
Procedure: (§1) The coding sequence cDNA of ShKAI2iB was amplified by PCR using total complementary DNA from the total RNA of 1-day conditioned Striga seeds. ShKAI2iB (1–270, C270S) was designed for crystallization and other assays. For expression in Escherichia coli, the PCR product was cloned into an expression vector pGEX-6P-3 (GE Healthcare) and subsequently transformed into E. coli strain Rosetta (DE3) (Novagen). IPTG-induced overexpression was performed for 20 h at 25 °C. For purification, cell pellets were lysed by sonication in buffer A (20 mM Tris-HCl, pH 8.0, 0.3 M NaCl, 1 mM DTT), and the soluble fraction separated by centrifugation was purified using Glutathione Sepharose 4B resin (GE Healthcare) and a Resource Q anion-exchange column (GE Healthcare). ShKAI2iB mutants were overexpressed and purified with the same procedure as wild-type protein. For crystallization, buffer exchange accompanied by concentration was performed using Vivaspin 20 (5,000 MWCO PES) (Sartorius). Purified ShKAI2iB was dialyzed against buffer B (20 mM HEPES-NaOH, pH 8.0, 50 mM NaCl) for the ITC experiments and the intrinsic fluorescence assay.
(§2) Binding assays of ShKAI2iB and KAR1 were performed using a MicroCal iTC200 isothermal titration calorimeter (GE Healthcare). Prior to the ITC experiments, concentrated ShKAI2iB was dialyzed against a buffer consisting of 20 mM HEPES-NaOH, pH 8.0, and 50 mM NaCl to remove dithiothreitol and then adjusted to a final concentration of 150 μM. The sample cell was filled with ShKAI2iB solution (204 μl). […] of 3 mM KAR1 or 3 mM rac-GR24 (equimolar mixture of two enantiomers: GR24^5DS and GR24^ent-5DS) was injected into the prepared protein solution by 20 consecutive 2.0 μl aliquots at 150 s intervals at 10 °C. The first injection volume was 0.4 μl, and the observed thermal peak was excluded from the data analyses. Duplicate experiments were performed independently. A negative control was made by titrating 3 mM KAR1 into a buffer (20 mM HEPES, pH 8.0, 50 mM NaCl) in the same manner. Data fitting was performed using Origin software in the “one set of sites” mode. The dissociation constant (KD) values were calculated from duplicate thermograms (mean ± S.D.).

[5] = system: KAI2; set-up: method as in PMID 25126711; conditions: cited from earlier work; remark: listed apart in the source
[6] = target: ShKAI2iB L142A (Striga hermonthica, UniProt A0A0M3PN85, C270S/L142A); experiment: ITC binding to ShKAI2iB L142A mutant
ShKAI2iB L142A, sequence (A0A0M3PN85 1-270 L142A/C270S): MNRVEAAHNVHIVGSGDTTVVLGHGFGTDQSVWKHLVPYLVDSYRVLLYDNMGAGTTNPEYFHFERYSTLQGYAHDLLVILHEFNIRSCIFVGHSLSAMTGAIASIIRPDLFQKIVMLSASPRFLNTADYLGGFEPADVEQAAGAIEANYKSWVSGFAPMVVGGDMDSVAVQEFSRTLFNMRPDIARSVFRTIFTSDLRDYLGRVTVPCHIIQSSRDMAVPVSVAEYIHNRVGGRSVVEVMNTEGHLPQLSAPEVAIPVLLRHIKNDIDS
Procedure: as §1, §2
(§3) Supplementary Figure 4. Results of ITC experiments between ShKAI2iB mutants and KAR1. ITC experiments were performed b y titrating KAR1 into ShKA I2iB mutants (a, F194A; b, S95A; c, L142A; d, F190L; e, V139 L) or into buffer as a negat ive control (f). The upper panel illustrates raw ITC data. The bottom panel represents data of the enthalpy cha nge deri ved fr om the upper panel. Corres ponding […]
(§4) (1 picture or pasted object on this page, not shown here)

[7] = target: ShKAI2iB F190L (Striga hermonthica, UniProt A0A0M3PN85, C270S/F190L); experiment: ITC binding to ShKAI2iB F190L mutant
ShKAI2iB F190L, sequence (A0A0M3PN85 1-270 F190L/C270S): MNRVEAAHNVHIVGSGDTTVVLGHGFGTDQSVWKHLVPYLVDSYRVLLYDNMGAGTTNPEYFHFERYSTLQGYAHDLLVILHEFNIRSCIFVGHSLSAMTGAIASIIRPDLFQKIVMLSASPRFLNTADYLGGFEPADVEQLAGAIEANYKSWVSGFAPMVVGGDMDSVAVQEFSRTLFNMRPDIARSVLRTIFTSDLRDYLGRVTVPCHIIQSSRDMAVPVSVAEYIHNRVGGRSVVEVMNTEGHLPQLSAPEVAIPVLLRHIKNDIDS
Procedure: as §1
(§5) Binding assays of ShKAI2iB and KAR1 were performed using a MicroCal iTC200 isothermal titration calorimeter (GE Healthcare). Prior to the ITC experiments, concentrated ShKAI2iB was dialyzed against a buffer consisting of 20 mM HEPES-NaOH, pH 8.0, and 50 mM NaCl to remove dithiothreitol and then adjusted to a final concentration of 150 μM. The sample cell was filled with ShKAI2iB solution (204 μl). Two microliters of 3 mM KAR1 or 3 mM rac-GR24 (equimolar mixture of two enantiomers: GR24^5DS and GR24^ent-5DS) was injected into the prepared protein solution by 20 consecutive 2.0 μl aliquots at 150 s intervals at 10 °C. The first injection volume was 0.4 μl, and the observed thermal peak was excluded from the data analyses. Duplicate experiments were performed independently. […] The dissociation constant (KD) values were calculated from duplicate thermograms (mean ± S.D.). […]

[8] = target: ShKAI2iB F194A (Striga hermonthica, UniProt A0A0M3PN85, C270S/F194A); experiment: ITC binding to ShKAI2iB F194A mutant
ShKAI2iB F194A, sequence (A0A0M3PN85 1-270 F194A/C270S): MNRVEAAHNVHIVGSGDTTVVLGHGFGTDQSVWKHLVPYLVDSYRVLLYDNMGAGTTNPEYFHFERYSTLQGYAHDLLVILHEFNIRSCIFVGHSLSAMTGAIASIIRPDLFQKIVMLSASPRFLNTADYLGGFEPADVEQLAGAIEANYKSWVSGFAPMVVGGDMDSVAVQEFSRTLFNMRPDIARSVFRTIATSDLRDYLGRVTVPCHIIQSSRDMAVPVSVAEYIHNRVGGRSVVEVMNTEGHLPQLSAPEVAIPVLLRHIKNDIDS
Procedure: as §1, §2, §3, §4

[9] = system: S. hermonthica; set-up: method as in PMID 26228149; conditions: cited from earlier work
[10] = target: ShKAI2iB V139L (Striga hermonthica, UniProt A0A0M3PN85, C270S/V139L); experiment: ITC binding to ShKAI2iB V139L mutant
ShKAI2iB V139L, sequence (A0A0M3PN85 1-270 V139L/C270S): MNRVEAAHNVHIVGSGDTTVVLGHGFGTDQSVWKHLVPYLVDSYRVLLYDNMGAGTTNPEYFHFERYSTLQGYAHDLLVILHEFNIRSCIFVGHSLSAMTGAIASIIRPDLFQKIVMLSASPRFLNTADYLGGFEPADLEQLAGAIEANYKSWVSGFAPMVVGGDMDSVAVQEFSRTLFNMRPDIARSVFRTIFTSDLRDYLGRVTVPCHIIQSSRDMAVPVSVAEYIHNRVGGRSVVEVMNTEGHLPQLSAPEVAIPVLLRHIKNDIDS
Procedure: as §1, §5

[11] = system: ShKAI2iB S95A; experiment: ITC binding to ShKAI2iB S95A mutant; set-up: species or system Striga hermonthica
Procedure: as §1
Binding assays of ShKAI2iB and KAR1 were performed using a MicroCal iTC200 isothermal titration calorimeter (GE Healthcare). […] The dissociation constant (KD) values were calculated from duplicate thermograms (mean ± S.D.). […]

T1 sequence (A0A0M3PN85 1-270 C270S): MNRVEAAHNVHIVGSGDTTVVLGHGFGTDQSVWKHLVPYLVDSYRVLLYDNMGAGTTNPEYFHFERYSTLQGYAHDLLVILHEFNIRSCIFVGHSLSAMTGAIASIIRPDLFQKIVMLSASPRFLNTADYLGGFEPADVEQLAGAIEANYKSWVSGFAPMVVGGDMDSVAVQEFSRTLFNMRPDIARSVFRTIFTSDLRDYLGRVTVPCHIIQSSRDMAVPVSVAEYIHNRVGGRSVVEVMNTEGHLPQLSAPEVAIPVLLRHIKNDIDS

CC1=CC(OC=C2C(=O)OC3c4ccccc4CC23)OC1=O (racemic) [rac-GR24]
fluorescence change (binding) ([1]; wild-type ShKAI2iB): no detectable heat change or fluorescence change
hydrolysis by ShKAI2iB [2]: not capable of hydrolyzing
hydrolysis by ShKAI2iB ([2]; listed as GR24): unable to bind and hydrolyze
binding to KAI2 [3]: able to bind
heat change in ITC (binding) ([4]; wild-type ShKAI2iB, 3 mM ligand titrated): no detectable heat change
hydrolysis by KAI2 [5]: exhibits hydrolytic activity

Cc1c2ccocc-2oc1=O [KAR1, 3-methyl-2H-furo [2,3-c] pyran-2-one]
Kd [6]: 196 ± 24 µM
ΔG ([6]; L142A mutant): –4.76 kcal/mol
ΔH ([6]; L142A mutant): –7.00 ± 0.70 kcal mol^–1
ΔS ([6]; L142A mutant): –7.90 cal mol^–1 deg^–1
ΔG [7]: –4.75 kcal/mol
ΔH [7]: –11.71 ± 8.89 kcal mol^–1
ΔS [7]: –24.6 cal mol^–1 deg^–1
Kd [8]: 107 ± 10 µM
change of ITC result versus wild type ([8]; F194A mutant): no significant change
ΔG ([8]; F194A mutant): –5.11 kcal/mol
ΔH ([8]; F194A mutant): –13.24 ± 63.94 kcal mol^–1
ΔS ([8]; F194A mutant): –28.7 cal mol^–1 deg^–1
induction of germination of S. hermonthica [9]: failed to induce germination
ΔH [10]: –12.87 ± 0.03 kcal mol^–1
ΔS [10]: –24.8 cal mol^–1 deg^–1
Kd ([10]; KD, ITC): 35.6 µM and 36 µM
Kd [1]: 70 ± 3.4 µM
binding to KAI2 [3]: able to bind
Kd [4]: 77.6 ± 3.4 µM
N (number of sites) ([4]; wild-type ShKAI2iB, ITC): 0.91 ± 0.05
ΔG ([4]; wild-type ShKAI2iB, ITC): –5.35 kcal/mol
ΔS (entropy change) ([4]; wild-type ShKAI2iB, ITC, 10 °C): –3.99 cal mol^–1 deg^–1
heat change in ITC (binding) [11]: almost no heat change; also recorded: abolishes binding

From publication PMC4979206, “Structural basis of unique ligand specificity of KAI2-like protein from parasitic weed Striga hermonthica” (Scientific Reports, 2016)
